The assay concerns 317291-083-R-J1-PDC complex spheroids, viability. The assay is described as follows: Anticancer human tumor 317291-083-R-J1-PDC patient-derived soft tissue sarcoma cell line growth inhibition [GQUAD]. The note with it: for viability, T/C: stronger effect = lower value. An excerpt:
DNA G-quadruplex Stabilizer Agents in Combinations in Complex Spheroids
A high-throughput screen of multi-cell type tumor spheroids was designed to identify active combinations of DNA G-quadruplex stabilizer agents and targeted small molecules. Complex spheroids include a stromal component modeled by human endothelial cells (HUVEC) and fibroblasts modeled by human mesenchymal stem cells (MSCs). The concentration ranges selected for each drug and investigational agent were based upon clinically achievable concentrations if the clinical Cmax of the agent was known.
Compounds. The drugs and investigational agents: pidnarulex (CX-5461; NSC782164), APTO-253 (NSC789042), BRACO-19 (NSC847499), peposertib (NSC802822), ceralasertib (NSC780249), elimusertib (NSC800525), camonsertib (NSC841442), AZD-1390 (NSC803789), olaparib (NSC753686), talazoparib (NSC767125), ART-558 (NSC835418), sotorasib (NSC818433), MRTX-1133 (NSC836407), SN-38 (NSC673596), topotecan (NSC609699), etoposide (NSC141540), doxorubicin (NSC123127), gemcitabine (NSC613327), 5-fluorouracil (NSC19893), paclitaxel (NSC125973), vemurafenib (NSC761431), panobinostat (NSC761190), R-306465 (JNJ-16241199; NSC773264), adavosertib (NSC754352), TP-3654 (NSC805149), carboplatin (NSC241240), KSQ-4279 (NSC840948), and staurosporine (NSC755774) were obtained from the National Cancer Institute (NCI) Developmental Therapeutics Program Chemical Repository (34). The FDA-approved anticancer drug set is available from the NCI Developmental Therapeutics Program. […] The stock solutions were prepared in dimethyl sulfoxide (DMSO, Sigma-Aldrich, St. Louis, MO, cat. D2650) at 800-fold the tested concentration and stored at -70 degrees C prior to their use. All drugs and investigational agents were tested over a range starting from a high concentration at or near the clinical Cmax and decreasing in half-log increments. If the clinical Cmax for an agent had not been determined, the highest concentration tested was 10 microM.
2.3 Cell Culture. All cells were maintained in an incubator at 37 degrees C and 5% CO2 with 95% humidity. The PDC lines were cultured according to standard operating procedures established by the NCI PDMR. All PDCs were thawed and cultured in Matrigel-coated flasks prepared with a working solution of 1X Ham's F-12 nutrient mix, without supplementation (Invitrogen, cat. 11765054), 100 U/mL penicillin-streptomycin (Invitrogen, cat. 15140122), and 2.5% Matrigel (Corning Inc., cat. 354248) for the first three passages. The 857933-349-R-J2-PDC line was cultured in 6C/Colon 1B media, which includes advanced DMEM/F-12 (Thermo Fisher Scientific, cat. 12634028), 10 mM HEPES (Thermo Fisher Scientific, cat. 15630080), 1X GlutaMAX supplement (Thermo Fisher Scientific, cat. 35050061), 0.1 mg/mL primocin (InvivoGen, cat. ant-pm-2), 10% defined fetal bovine serum, heat inactivated (HyClone Laboratories Inc., cat. SH30070.03HI), 50% L-WRN conditioned media (ATCC, cat. CRL-3276), 1.25 mM N-Acetyl-L-cysteine (Sigma-Aldrich, cat. A9165), 10 mM nicotinamide (Sigma-Aldrich, cat. N0636), 1X B-27 supplement (Thermo Fisher Scientific, cat. 17504044), 1X N-2 supplement (Thermo Fisher Scientific, cat. 17502048), 10 microM Y-27632 dihydrochloride (Tocris Bioscience, cat. 1254), and 50 ng/mL human EGF recombinant protein (Thermo Fisher Scientific, cat. PHG0311). The 485176-168-R4-J1-PDC line was cultured in Panc media, which includes all 6C/Colon 1B media components plus 100 ng/mL human FGF-10 (Thermo Fisher Scientific, cat. 100-26), 500 nM SB-431542 (Selleckchem, cat. S1067), and gastrin (Tocris, cat. 3006).
[…]

Setting [1] is: curve of first compound, second compound 0.0316 µM.
Setting [2] is: curve of first compound, second compound 0.1 µM.
[3] abbreviates: curve of first compound, second compound 0.316 µM.
Setting [4] is: curve of first compound, second compound 1 µM.
Where [5] appears, read: curve of first compound, second compound 3.16 µM.
The mark [6] stands for this setting: curve of first compound, second compound 10 µM.
[7] abbreviates: second compound 0.0316 µM, first compound 0.0316 µM.
Setting [8] is: second compound 0.0316 µM, first compound 0.1 µM.
[9] abbreviates: second compound 0.0316 µM, first compound 0.316 µM.
Where [10] appears, read: second compound 0.0316 µM, first compound 1 µM.
Setting [11] is: second compound 0.0316 µM, first compound 3.16 µM.
[12] abbreviates: second compound 0.0316 µM, first compound 10 µM.
[13] abbreviates: second compound 0.1 µM, first compound 0.0316 µM.
Setting [14] is: second compound 0.1 µM, first compound 0.1 µM.
Setting [15] is: second compound 0.1 µM, first compound 0.316 µM.
Setting [16] is: second compound 0.1 µM, first compound 1 µM.
[17] abbreviates: second compound 0.1 µM, first compound 3.16 µM.
The mark [18] stands for this setting: second compound 0.1 µM, first compound 10 µM.
[19] abbreviates: second compound 0.316 µM, first compound 0.0316 µM.
Setting [20] is: second compound 0.316 µM, first compound 0.1 µM.
The mark [21] stands for this setting: second compound 0.316 µM, first compound 0.316 µM.
Where [22] appears, read: second compound 0.316 µM, first compound 1 µM.
[23] abbreviates: second compound 0.316 µM, first compound 3.16 µM.
Where [24] appears, read: second compound 0.316 µM, first compound 10 µM.
Where [25] appears, read: second compound 1 µM, first compound 0.0316 µM.
Where [26] appears, read: second compound 1 µM, first compound 0.1 µM.
The mark [27] stands for this setting: second compound 1 µM, first compound 0.316 µM.
Setting [28] is: second compound 1 µM, first compound 1 µM.
[29] abbreviates: second compound 1 µM, first compound 3.16 µM.
The mark [30] stands for this setting: second compound 1 µM, first compound 10 µM.
[31] abbreviates: second compound 3.16 µM, first compound 0.0316 µM.
Setting [32] is: second compound 3.16 µM, first compound 0.1 µM.
Setting [33] is: second compound 3.16 µM, first compound 0.316 µM.
Where [34] appears, read: second compound 3.16 µM, first compound 1 µM.
Where [35] appears, read: second compound 3.16 µM, first compound 3.16 µM.
[36] abbreviates: second compound 3.16 µM, first compound 10 µM.
Where [37] appears, read: second compound 10 µM, first compound 0.0316 µM.
[38] abbreviates: second compound 10 µM, first compound 0.1 µM.
Setting [39] is: second compound 10 µM, first compound 0.316 µM.
[40] abbreviates: second compound 10 µM, first compound 1 µM.
Setting [41] is: second compound 10 µM, first compound 3.16 µM.
Where [42] appears, read: second compound 10 µM, first compound 10 µM.

From PubChem BioAssay AID2060497 (Molecular Pharmacology Branch, DTP, NCI, 2025) come the findings set out here.

Values joined by “and” are separate entries in the source; they are usually repeats but may differ in a detail not shown here. Identical values can stand only once.

For orientation: IC50 means the concentration that inhibits the measured activity by half. Broadly, the viability, T/C is the ratio of treated to control.
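Also: spheroids exposed to compounds for one week before readout.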
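For viability, T/C in this document: percent viability relative to DMSO vehicle wells taken as 100%.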

`CCCS(=O)(=O)Nc1ccc(F)c(C(=O)c2c[nH]c3ncc(-c4ccc(Cl)cc4)cc23)c1F` + CN(C)c1ccc(Nc2c3ccc(NC(=O)CCN4CCCC4)cc3nc3cc(NC(=O)CCN4CCCC4)ccc23)cc1: the IC50 under setting [1] was 4160 nM; the IC50 under setting [2] was determined as 3840 nM; the IC50 under setting [3] is 684 nM; the IC50 under setting [4] was less than 31.6 nM; the IC50 under setting [5] is less than 31.6 nM; the IC50 under setting [6] is less than 31.6 nM. The viability, T/C is 121% under setting [7]; 107% under setting [8]; 108% under setting [9]; 102% under setting [10]; 60.4% under setting [11]; 15.4% under setting [12]. Further, the viability, T/C by setting is: under setting [13], 106%; under setting [14], 99.9%; under setting [15], 82.9%; under setting [16], 87.1%; under setting [17], 56.9%; under setting [18], 13.6%. For the same compound, the viability, T/C under setting [19] is 86.6%; the viability, T/C under setting [20] was 72.3%; the viability, T/C under setting [21] is 56.3%; the viability, T/C under setting [22] is 49.2%; the viability, T/C under setting [23] was 30.6%; the viability, T/C under setting [24] is 14.1%. Besides, the viability, T/C reads like this: under setting [25], 45.6%; under setting [26], 25.1%; under setting [27], 38.2%; under setting [28], 30.3%; under setting [29], 28.7%; under setting [30], 6.94%. Besides, the viability, T/C runs as follows: under setting [31], 5.58%; under setting [32], 0.71%; under setting [33], 9.21%; under setting [34], 1.39%; under setting [35], 4.27%; under setting [36], 1.07%. Moreover, the viability, T/C reads like this: under setting [37], 0.47%; under setting [38], 0.37%; under setting [39], 0.54%; under setting [40], 2.11%; under setting [41], 0.46%; under setting [42], 0.51%.
As to `Cc1cccc(N(C)C(=O)C2C(O)CCN2c2nc(C)cc(C(F)(F)F)c2C#N)c1` (configuration not stated), the viability, T/C runs as follows: (compound 0.0316 µM) 98.9% and 109% and 103%; (compound 0.1 µM) 92.7% and 102% and 96.2%; (compound 0.316 µM) 91.3% and 123% and 98.8%; (compound 1 µM) 106% and 90.7% and 99.7%; (compound 3.16 µM) 105% and 86.5% and 93.1%; (compound 10 µM) 81.7% and 77.5% and 81.6%. Also, the IC50 (curve of compound) was greater than 10000 nM.
`CC(C)(O)C1CCC(Nc2ccc3ncc(-c4cccc(C(F)(F)F)c4)n3n2)CC1` (configuration not stated) + Cc1[nH]c2ccc(F)cc2c1-c1nc2c3cccnc3c3ncccc3c2[nH]1: the IC50 reads like this: under setting [1], 647 nM; under setting [2], 576 nM; under setting [3], 421 nM; under setting [4], 114 nM; under setting [5], less than 31.6 nM; under setting [6], less than 31.6 nM. Besides, the viability, T/C by setting is: under setting [7], 102%; under setting [8], 102%; under setting [9], 85.9%; under setting [10], 28.2%; under setting [11], 0.62%; under setting [12], 0.37%. Further, the viability, T/C by setting is: under setting [13], 91%; under setting [14], 85%; under setting [15], 77.1%; under setting [16], 25.4%; under setting [17], 0.16%; under setting [18], 0.74%. In addition, the viability, T/C by setting is: under setting [19], 61.8%; under setting [20], 70.9%; under setting [21], 61.6%; under setting [22], 14.3%; under setting [23], 0.22%; under setting [24], 0.17%. The viability, T/C is, setting by setting: under setting [25], 58.1%; under setting [26], 43%; under setting [27], 45.1%; under setting [28], 8.74%; under setting [29], 0.32%; under setting [30], 0.16%. Also, the viability, T/C is, setting by setting: under setting [31], 29.5%; under setting [32], 19.8%; under setting [33], 24.1%; under setting [34], 7.5%; under setting [35], 0.94%; under setting [36], 0.2%. Besides, the viability, T/C is 41% under setting [37]; 38.6% under setting [38]; 44.5% under setting [39]; 14.2% under setting [40]; 0.55% under setting [41]; 0.82% under setting [42].
Regarding `CC(C)n1c(=O)n(C)c2cnc3cc(F)c(-c4ccc(OCCCN5CCCCC5)nc4)cc3c21`, the viability, T/C runs as follows: (compound 0.0316 µM) 104% and 95.2% and 133%; (compound 0.1 µM) 94% and 71.9% and 96.8%; (compound 0.316 µM) 103% and 92.6% and 102%; (compound 1 µM) 106% and 94.4% and 105%; (compound 3.16 µM) 81.3% and 74.1% and 100%; (compound 10 µM) 44.8% and 39.7% and 45.3%. Moreover, where the note is “curve of compound”, the IC50 is 8470 nM and 7090 nM and 9180 nM.
For the compound `CC[C@@]1(O)C(=O)OCc2c1cc1n(c2=O)Cc2cc3c(CN(C)C)c(O)ccc3nc2-1`, the viability, T/C by setting is: (compound 0.000999 µM) 116% and 105% and 101%; (compound 0.00316 µM) 84% and 86.8% and 104%; (compound 0.00999 µM) 94.2% and 83.8% and 102%; (compound 0.0316 µM) 70.6% and 71.7% and 80.6%; (compound 0.0999 µM) 22.3% and 25% and 25.1%; (compound 0.316 µM) 14% and 20.4% and 10.5%. Moreover, the IC50 (curve of compound) was 51.5 nM and 53.9 nM and 59.7 nM.
Take `Cn1ncnc1[C@H]1c2n[nH]c(=O)c3cc(F)cc(c23)N[C@@H]1c1ccc(F)cc1`: the viability, T/C by setting is: (compound 0.000999 µM) 123% and 104% (2×); (compound 0.00316 µM) 109% and 92.2% and 102%; (compound 0.00999 µM) 99.7% and 95.3% and 94.3%; (compound 0.0316 µM) 86.2% and 89.7% and 90.5%; (compound 0.0999 µM) 98.2% and 67.3% and 84.9%; (compound 0.316 µM) 64.2% and 62.6% and 69%. For the same compound, under “curve of compound”, the IC50 was greater than 316 nM.
